Source: PubChem BioAssay (NCI)
Where “and” joins values, the source holds several entries; their conditions need not be identical. Equal entries are not always repeated.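 96-well plates; 48 h exposure; 5 concentrations. Endpoints by linear interpolation between flanking doses. Not reached: highest tested concentration assigned. Here, GI50 denotes the concentration required for 50% inhibition of growth. TGI: total growth inhibition.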

Tests used:
Experiment in all cases: NCI tumour cell line growth inhibition, 48 h
SF-539 CNS = tested on: SF-539 CNS
SNB-19 CNS = tested on: SNB-19 CNS
CCRF-CEM leukemia = tested on: CCRF-CEM leukemia
OVCAR-8 ovarian = tested on: OVCAR-8 ovarian
LOX IMVI melanoma = tested on: LOX IMVI melanoma
T-47D breast = tested on: T-47D breast
NCI-H226 lung = tested on: NCI-H226 lung
SF-295 CNS = tested on: SF-295 CNS
NCI/ADR-RES ovarian = tested on: NCI/ADR-RES ovarian
MCF7 breast = tested on: MCF7 breast

Compound | TGI (SF-539 CNS) | TGI (SNB-19 CNS) [µM] | TGI (CCRF-CEM leukemia) [µM] | TGI (OVCAR-8 ovarian) | TGI (LOX IMVI melanoma) [µM] | TGI (T-47D breast) [µM] | TGI (NCI-H226 lung) | TGI (SF-295 CNS) [µM] | GI50 (NCI-H226 lung) [µM] | GI50 (NCI/ADR-RES ovarian) [µM] | TGI (NCI/ADR-RES ovarian) | GI50 (OVCAR-8 ovarian) [µM] | TGI (MCF7 breast) [µM] | GI50 (T-47D breast) [µM] | GI50 (MCF7 breast) [µM] | GI50 (SF-539 CNS) [µM] | GI50 (SNB-19 CNS) [µM] | GI50 (SF-295 CNS) [µM] | GI50 (LOX IMVI melanoma) [µM] | GI50 (CCRF-CEM leukemia) [µM]
c1ccc(Nc2nnc(-c3nsc4ccccc34)o2)cc1 | > 100 µM | > 100 | > 100 | > 100 µM | > 100 | – | – | – | – | – | – | – | – | – | – | – | – | – | – | –
COc1ccc(C2=CN3CCC[C@H]3C=C2c2cc(O)c(OC)c(OC)c2)cc1OC | 0.0594 µM and 0.0927 µM | – | 0.235 | 0.0518 µM and 0.0108 µM | 0.00717 | 0.0938 | 0.0294 µM | 0.115 | – | – | – | – | – | – | – | – | – | – | – | –
CN(C)CC(NC(NCS)C(=O)NCCNc1ccc(NCCNC(=O)C(NCS)NC(CN(C)C)OCCl)c2c1C(=O)c1c(O)ccc(O)c1C2=O)OCCl (stereo not given) | – | 1.96 | – | – | 1.85 | 1.62 | 0.418 µM and 1.61 µM | 1.39 | 0.285 | 0.287 | 4.99 µM and 5.04 µM | 0.0436 | – | – | – | – | – | – | – | –
COc1ccc(/C=C2\CN(C)Cc3c2[nH]c(=O)c(C#N)c3-c2ccc(OC)cc2)cc1 | – | > 100 | > 100 | > 100 µM | > 100 | > 100 | > 100 µM | > 100 | – | – | > 100 µM | – | > 100 | – | – | – | – | – | – | –
O=C(Nc1cccc(-n2ccc3c(NC(=O)c4ccccc4)nccc32)c1)c1cc(N2CCOCC2)cc(C(F)(F)F)c1 | 0.94 µM | > 100 | – | > 100 µM | > 100 | > 100 | – | 2.16 | 0.36 | 0.09 | > 100 µM | 0.286 | > 100 | > 51.8 | 0.0332 | 0.0675 | 0.379 | 0.039 | 0.0912 | –
CC(C)(C)OC(=O)NCC(=O)N1CCCN(C(=O)CNC(=O)OC(C)(C)C)CC1 | – | > 100 | – | > 100 µM | > 100 | > 100 | > 100 µM | > 100 | – | – | > 100 µM | – | > 100 | – | – | – | – | – | – | –
CC(C)CCC[C@@H](C)[C@H]1CCC2C3=CCC4C(=O)C=CC(=O)C4C3CC[C@@]21C (stereo not given in full) | – | > 100 | > 100 | – | 1.17 | – | > 100 µM | 0.576 | 0.849 | – | – | 0.0726 | – | 0.174 | – | – | 0.543 | 0.172 | 0.227 | 0.179
CC(C)CCC/C(CBr)=C(\Cl)CCl | 23.6 µM | 28.6 | – | 3.86 µM | 0.542 | – | 25.7 µM | 26.5 | – | – | 10.7 µM | – | 12.9 | – | – | – | – | – | – | –
CCOC(=O)C(C)c1nc2cc(N3CCN(C)CC3)c(F)cc2[nH]c1=O (stereo not given) | > 100 µM | > 100 | > 100 | > 100 µM | – | > 100 | > 100 µM | > 100 | – | – | > 100 µM | – | > 100 | – | – | – | – | – | – | –
COC1/C=C/C(C)C(C(C)C(OC)C(C)CCC(=O)C(C)C(C/C=C/N(C)C=O)OC)OC(=O)/C=C/C=C(\C)CC(OC)C(OC)C2=CC(=O)O[C@@H](C(C)C(OC)CC(OC)/C=C/C(C)C(O)C1)[C@H]2O (stereo not given in full) | 0.381 µM | – | – | 0.829 µM | 0.0755 | 0.538 | 0.244 µM | 0.273 | – | – | 0.766 µM | – | 0.977 | – | – | – | – | – | – | –
O=C(C#Cc1cn(C2CC(O)C(CO)O2)c(=O)[nH]c1=O)c1ccccc1 (stereo not given) | 52.5 µM | > 100 | – | > 100 µM | > 100 | 36.7 | > 100 µM | > 100 | – | – | > 100 µM | – | > 100 | – | – | – | – | – | – | –
O=C(O)C1SCCS1 | – | > 100 | > 100 | > 100 µM | > 100 | > 100 | > 100 µM | > 100 | – | – | > 100 µM | – | > 100 | – | – | – | – | – | – | –
COc1ccc(C2(C3c4cc(OC)c(OC)cc4CCN3C)SCCCS2)cc1O (stereo not given) | > 100 µM | > 100 | > 100 | > 100 µM | > 100 | > 100 | – | > 100 | – | – | > 100 µM | – | > 100 | – | – | – | – | – | – | –
COc1cc(C2S/C(=C/c3ccccc3)C(=O)N2c2cccc([N+](=O)[O-])c2)cc(OC)c1OC (stereo not given) | – | > 100 | – | > 100 µM | > 100 | 21.4 | > 100 µM | > 100 | – | – | > 100 µM | – | > 100 | – | – | – | – | – | – | –
COc1cc(CNc2nc3cc(C(F)(F)F)ccc3nc2C)cc(OC)c1OC | 62.2 µM | > 100 | 62.6 | > 100 µM | 27.8 | 40.4 | – | 46.5 | – | – | – | – | – | – | – | – | – | – | – | –
Cc1cc([N+](=O)[O-])ccc1N=NC(=O)NNc1ccc([N+](=O)[O-])cc1C | – | 37.8 | 41.7 | 30 µM | 29.8 | 28.9 | 31.5 µM | – | – | – | – | – | 20.5 | – | – | – | – | – | – | –
CN(c1ccccc1Cl)S(=O)(=O)c1ccccc1[N+](=O)[O-] | > 100 µM | > 100 | > 100 | > 100 µM | > 100 | > 100 | > 100 µM | > 100 | – | – | 95.9 µM | – | – | – | – | – | – | – | – | –
CC(=O)OCC1OC(c2nnc(C)o2)=CC(OC(C)=O)C1OC(C)=O (stereo not given) | > 100 µM | > 100 | > 100 | > 100 µM | > 100 | – | > 100 µM | > 100 | – | – | > 100 µM | – | > 100 | – | – | – | – | – | – | –
COc1ccc2c(c1)-c1oc3ccccc3c(=O)c1CO2 | > 100 µM | – | > 100 | > 100 µM | 44.5 | 68.5 | > 100 µM | > 100 | – | – | > 100 µM | – | > 100 | – | – | – | – | – | – | –
COC(=O)c1cccc(C(=O)OC)c1 | – | > 100 | > 100 | – | > 100 | – | > 100 µM | > 100 | – | – | – | – | – | – | – | – | – | – | – | –
O=C(c1ccccc1)N1C(=S)N(c2ccc([N+](=O)[O-])cc2)C(=Nc2ccccc2)C1=Nc1ccccc1 | > 100 µM | > 100 | – | > 100 µM | – | > 100 | > 100 µM | > 100 | – | – | > 100 µM | – | > 100 | – | – | – | – | – | – | –
CC(C)(NC1=NCCO1)c1ccccc1 | > 100 µM | > 100 | – | > 100 µM | > 100 | > 100 | > 100 µM | > 100 | – | – | > 100 µM | – | > 100 | – | – | – | – | – | – | –
